Laboratory results from patent publication US20050145258A1, “Composition, Method and Device for Blood Supply Fluctuation Therapy” (priority 2004, published 2005).

Tests used:
[1] = system: liver cancer; assay type: in vivo, human
Protocol: The inlet tube member 2 was connected to gas resource of gaseous CO2. 500 ml of the gaseous CO2 was introduced into storing bag for cleaning the air within the storing bag and delivery system. T Stopcock 1 in inlet tube member 2 was turned off to stop the gas into storing bag temporally. The gaseous CO2 in storing bag 3 was aspirated into syringe 6, then impelled by the syringe 6. Due to the function of check valve, during the aspirating of syringe, the first check valve 5 was open; meanwhile the second and third check valves were closed automatically. The gas in the storing bag was aspirated into syringe 6. During the impelling of syringe, the first check valve was closed and the second and third check valves were open automatically. The gaseous CO2 in the syringe is impelled out of the delivery device through the outlet of the third three-way stopcock. Repeating syringe aspirating and impelling until all gas in the storing bag was emptied, and the air within storing bag and delivery device was cleaned. After that, the stopcock on the inlet tubular member was turned on again to introduce the gaseous CO2 from the gas resource into storing bag 3 to fill the storing bag (2000 ml), then the stopcock 1 was turned off to stop gaseous CO2 introduction. The gaseous CO2 and delivery system was ready for use. […] The delivery catheter 13 was connected to the outlet of the third three-way stopcock of the delivery system, and the air within the catheter 13 was removed. Using the gaseous CO2 as contrast medium, 50 ml gaseous CO2 at rate of 10 ml/second was injected by syringe 6 into the hepatic artery to perform a diagnostic DSA. The diagnostic DSA was used to identify the location, size of tumor, arteries supplying blood to liver cancer, blood flow within tumor tissue and time gaseous CO2 staying in tumor vessels. All those information was necessary to doctor to select an optimal protocol of Blood Supply Fluctuation Therapy (BSFT). Then, the angiographic catheter was advanced into the artery supplying blood flow to the liver cancer. […] Blood Supply Fluctuation Therapy (BSFT) with Gaseous CO2: gaseous CO2 was injected slowly by the delivery syringe 6 through the catheter 13 into the tumor vasculature. […] The gas displaces the blood flow within the tumor vessels partially or entirely depending on the injection rate and lasting time. With increasing of the gaseous mixture, the blood supply to the liver cancer was decreased, even stopped. Because tumor vasculature was immature, “vapor lock” in tumor vasculature was produced by the gaseous CO2. With decreasing and stopping of the blood flow of tumor vasculature, the gaseous CO2 injected through delivery catheter might overflow into the arteries supplying normal liver tissue that could be detected and monitored by X-ray fluoroscopy, DSA, CT or ultrasound imaging. Because the gaseous CO2 was absorbable in blood and could be flushed away in normal vasculature within one minute, therefore the gaseous CO2 overflowing into normal vasculature caused no damage in normal liver tissue. At this time, gaseous CO2 delivery was stopped. Due to vapor lock, there was no blood flow in tumor vasculature and no nutrition and oxygen was delivery to tumor cells, which made it under starvation and hypoxia. Meanwhile also due to the vapor lock, area of the CO2 bubbles contacting with blood was getting much smaller, which limits CO2 absorbability and prolongs CO2 gas staying within tumor vasculature. […] Under X-ray fluoroscopy, the tumor looked like a balloon filled with gas (FIG. 9). Thirty minutes after injection of CO2 about half of the gas still remained in the tumor (FIG. 10).

[2] = system: uterine fibroids; experiment: Blood supply fluctuation therapy with gaseous mixture of CO2 and nitric oxide in patients with uterine fibroids; assay type: in vivo, human
Source text: Preparation of gaseous mixture of CO2 and Nitric Oxide: the preparation procedure was same as that of gaseous CO2 in example 1, except the gaseous material was not CO2, but the gaseous mixture of CO2 and Nitric Oxide (NO). The concentration of NO was present in an amount effective to prevent vasospasm and ischemia, 40 ppm here.
Selective catheterization and diagnostic Digital Subtraction Angiogrpahy (DSA) with Gaseous Mixture of CO2 and Nitric Oxide (NO): under monitoring of X-ray fluoroscope and using interventional technique of selective catheterization, a delivery catheter was inserted into the internal iliac artery in the patients with uterine fibroids. […]
Blood Supply Fluctuation Therapy (BSFT) with Gaseous Mixture of CO2 and Nitric Oxide (NO): gaseous mixture of CO2 and Nitric Oxide (NO) was injected slowly and intermittently by the delivery syringe through the delivery catheter into tumor vasculature at the rate of 1 ml/s and with 5 minutes interval each 20 ml injection. […] With the decreasing and stopping of the blood flow of tumor vasculature, the gaseous mixture injected through delivery catheter might overflows into the arteries supplying normal uterine wall that could be detected and monitored by X-ray fluoroscopy, DSA, CT or ultrasound imaging. […]

## O=C=O [CO2, carbon dioxide]
[1]; human, in vivo
  CO2 bubbles in immature tumor vasculature, DSA imaging: filled and accumulated
  CO2 bubbles in normal liver tissue, DSA imaging: no bubbles accumulated
  damage in normal liver tissue: no damage
  discomfort felt by patients receiving the injection: minor discomfort on liver area
  time CO2 accumulates and stays in abnormal vasculature: for hours, even for days
  time to be flushed away in normal vasculature: one
[1]; repeated 50 ml injections through catheter
  vapor lock in tumor vasculature: produced
[1]; tumor 7 cm in diameter, total of 500 ml CO2, 3-5 ml/s, 3-5 minutes interval each 50 ml injection
  filling of liver tumor with CO2, X-ray: fully filled
[2]; 45 minutes after BSFT
  vapor lock in tumor vasculature, CT scan: produced
[2]; human, in vivo
  gas seen in normal uterine tissue, CT scan: No gas
